Assay results: PubChem BioAssay (NCI)
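Compound exposure: 48 hours, 5 concentrations, 96-well plates. GI50 marks 50% less growth. TGI denotes the concentration required for complete inhibition of growth.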

Key:
Experiment in all cases: inhibition of tumour cell growth, NCI panel, 48 h
[1] = system: 786-0 renal
[2] = system: A549 NSCLC
[3] = system: ACHN renal
[4] = system: BT-549 breast
[5] = system: CAKI-1 renal
[6] = system: COLO 205 colon
[7] = system: DU-145 prostate
[8] = system: EKVX NSCLC
[9] = system: HCT-15 colon
[10] = system: HL-60(TB) leukemia
[11] = system: HOP-62 NSCLC
[12] = system: HOP-92 NSCLC
[13] = system: HS 578T breast
[14] = system: HT29 colon
[15] = system: IGROV1 ovarian
[16] = system: K-562 leukemia
[17] = system: KM12 colon
[18] = system: LOX IMVI melanoma
[19] = system: M14 melanoma
[20] = system: MALME-3M melanoma
[21] = system: MCF7 breast
[22] = system: MDA-MB-231 breast
[23] = system: MDA-MB-435
[24] = system: MOLT-4 leukemia
[25] = system: NCI-H226 lung
[26] = system: NCI-H23 lung
[27] = system: NCI-H460 lung
[28] = system: NCI-H522 lung
[29] = system: NCI/ADR-RES ovarian
[30] = system: OVCAR-3 ovarian
[31] = system: OVCAR-4 ovarian
[32] = system: OVCAR-5 ovarian
[33] = system: OVCAR-8 ovarian
[34] = system: PC-3 prostate
[35] = system: RPMI-8226 leukemia
[36] = system: RXF 393 renal
[37] = system: SF-268 CNS
[38] = system: SF-295 CNS
[39] = system: SF-539 CNS
[40] = system: SK-MEL-2 melanoma
[41] = system: SK-MEL-28 melanoma
[42] = system: SK-MEL-5 melanoma
[43] = system: SK-OV-3 ovarian
[44] = system: SN12C renal
[45] = system: SNB-19 CNS
[46] = system: SNB-75 CNS
[47] = system: SR leukemia
[48] = system: SW-620 colon
[49] = system: T-47D breast
[50] = system: U251 CNS
[51] = system: UACC-257 melanoma
[52] = system: UACC-62 melanoma
[53] = system: UO-31 renal

SMILES: Oc1cc2ccccc2cc1-c1n[nH]c(=S)n1CCc1ccccc1
- GI50 [1]: 18.3 µM
- TGI [1]: 36.2 µM
- GI50 [2]: 37.3 µM
- TGI [2]: > 100 µM
- GI50 [3]: 22.4 µM
- TGI [3]: 69.8 µM
- GI50 [4]: 18.6 µM
- TGI [4]: 45.9 µM
- GI50 [5]: 30.9 µM
- TGI [5]: 73.9 µM
- GI50 [6]: 35.1 µM
- TGI [6]: > 100 µM
- GI50 [7]: 37.1 µM
- TGI [7]: > 100 µM
- GI50 [8]: 33.7 µM
- TGI [8]: 79.3 µM
- GI50 [9]: 22.5 µM
- TGI [9]: 51.9 µM
- GI50 [10]: 73.2 µM
- TGI [10]: > 100 µM
- GI50 [11]: 25.7 µM
- TGI [11]: 43.6 µM
- GI50 [12]: 55.7 µM
- TGI [12]: > 100 µM
- GI50 [13]: 24.2 µM
- TGI [13]: 57 µM
- GI50 [14]: 35.7 µM
- TGI [14]: 91.8 µM
- GI50 [15]: 14.8 µM
- TGI [15]: 30.3 µM
- GI50 [16]: 68.2 µM
- TGI [16]: > 100 µM
- GI50 [17]: 43.2 µM
- TGI [17]: > 100 µM
- GI50 [18]: 22.1 µM
- TGI [18]: 38.7 µM
- GI50 [19]: 15.8 µM
- TGI [19]: 32.2 µM
- GI50 [20]: 26.7 µM
- TGI [20]: 58.9 µM
- GI50 [21]: 22.5 µM
- TGI [21]: 44.5 µM
- GI50 [22]: 22.1 µM
- TGI [22]: 57.8 µM
- GI50 [23]: 26.2 µM
- TGI [23]: 91.7 µM
- GI50 [24]: > 100 µM
- TGI [24]: > 100 µM
- GI50 [25]: 19.9 µM
- TGI [25]: 55.3 µM
- GI50 [26]: 16.5 µM
- TGI [26]: 36.1 µM
- GI50 [27]: 20.2 µM
- TGI [27]: 35.3 µM
- GI50 [28]: 15.3 µM
- TGI [28]: 31.3 µM
- GI50 [29]: 21.1 µM
- TGI [29]: 43.5 µM
- GI50 [30]: 34.4 µM
- TGI [30]: 94 µM
- GI50 [31]: 42.2 µM
- TGI [31]: > 100 µM
- GI50 [32]: 24.1 µM
- TGI [32]: 53.4 µM
- GI50 [33]: 35.5 µM
- TGI [33]: > 100 µM
- GI50 [34]: 20.6 µM
- TGI [34]: 43.5 µM
- GI50 [35]: 18.1 µM
- TGI [35]: 62.5 µM
- GI50 [36]: 30.7 µM
- TGI [36]: 59 µM
- GI50 [37]: 19.7 µM
- TGI [37]: 37.2 µM
- GI50 [38]: 42.3 µM
- TGI [38]: > 100 µM
- GI50 [39]: 21.3 µM
- TGI [39]: 44.5 µM
- GI50 [40]: 16.3 µM
- TGI [40]: 32.8 µM
- GI50 [41]: 44.8 µM
- TGI [41]: > 100 µM
- GI50 [42]: 19.4 µM
- TGI [42]: 43.6 µM
- GI50 [43]: 25.9 µM
- TGI [43]: > 100 µM
- GI50 [44]: 16.7 µM
- TGI [44]: 32.6 µM
- GI50 [45]: 36.7 µM
- TGI [45]: > 100 µM
- GI50 [46]: 73.2 µM
- TGI [46]: > 100 µM
- GI50 [47]: > 100 µM
- TGI [47]: > 100 µM
- GI50 [48]: 36.2 µM
- TGI [48]: > 100 µM
- GI50 [49]: 43.6 µM
- TGI [49]: > 100 µM
- GI50 [50]: 20.3 µM
- TGI [50]: 39 µM
- GI50 [51]: 30 µM
- TGI [51]: 65.6 µM
- GI50 [52]: 21.2 µM
- TGI [52]: 39.6 µM
- GI50 [53]: 20.3 µM
- TGI [53]: 52.7 µM
